What was measured:
[1] = Half life in CD-1 mouse at 3 mg/kg, iv; type: ADME, organism-based; conditions: in vivo
[2] = molecular target: T1, Peroxisome proliferator-activated receptor alpha (Homo sapiens, UniProt Q07869); experiment: Modulator activity at GAL4-fused human PPARalpha LBD (unknown origin) transfected in African green monkey CV1 cells assessed as receptor transactivation by luciferase reporter gene assay; type: cell-based, CV-1
T1 sequence (Q07869 whole entry): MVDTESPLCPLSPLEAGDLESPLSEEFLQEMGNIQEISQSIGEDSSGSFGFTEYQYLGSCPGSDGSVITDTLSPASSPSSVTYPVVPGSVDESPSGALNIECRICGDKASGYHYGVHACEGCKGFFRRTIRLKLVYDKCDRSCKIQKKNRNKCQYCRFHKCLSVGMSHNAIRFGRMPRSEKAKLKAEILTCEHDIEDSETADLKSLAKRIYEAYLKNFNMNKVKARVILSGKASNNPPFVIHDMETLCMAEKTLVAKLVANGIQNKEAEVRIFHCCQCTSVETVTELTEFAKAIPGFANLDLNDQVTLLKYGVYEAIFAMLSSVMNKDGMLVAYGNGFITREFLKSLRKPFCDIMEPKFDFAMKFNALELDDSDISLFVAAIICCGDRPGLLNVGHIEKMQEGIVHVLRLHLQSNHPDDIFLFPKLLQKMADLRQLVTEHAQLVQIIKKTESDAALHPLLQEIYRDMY

[3] = molecular target: T2, Peroxisome proliferator-activated receptor delta (Homo sapiens, UniProt Q03181)
T2 sequence (Q03181 whole entry): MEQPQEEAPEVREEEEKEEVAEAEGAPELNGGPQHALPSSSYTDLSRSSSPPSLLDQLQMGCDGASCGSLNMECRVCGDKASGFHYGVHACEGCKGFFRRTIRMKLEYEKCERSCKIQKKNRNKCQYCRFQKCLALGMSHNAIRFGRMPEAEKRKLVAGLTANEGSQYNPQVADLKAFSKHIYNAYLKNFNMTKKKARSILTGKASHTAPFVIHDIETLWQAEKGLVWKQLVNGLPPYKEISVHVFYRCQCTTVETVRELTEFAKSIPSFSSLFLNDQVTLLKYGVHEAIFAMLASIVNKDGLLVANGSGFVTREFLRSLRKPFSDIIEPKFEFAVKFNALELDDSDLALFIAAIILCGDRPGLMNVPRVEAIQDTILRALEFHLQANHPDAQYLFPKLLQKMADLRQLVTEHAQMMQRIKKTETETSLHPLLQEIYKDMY
Description: Modulator activity at GAL4-fused human PPARdelta LBD (128 to residue at C-terminus) transfected in African green monkey CV1 cells assessed as receptor transactivation by luciferase reporter gene assay

[4] = AUC in CD-1 mouse at 3 mg/kg, iv; type: ADME, organism-based; parameters: dose 3 mg/kg; conditions: in vivo
[5] = molecular target: T3, Peroxisome proliferator-activated receptor gamma (Homo sapiens, UniProt P37231); experiment: Modulator activity at GAL4-fused human PPARgamma LBD (unknown origin) transfected in African green monkey CV1 cells assessed as receptor transactivation by luciferase reporter gene assay; type: cell-based, CV-1
T3 sequence (P37231 whole entry): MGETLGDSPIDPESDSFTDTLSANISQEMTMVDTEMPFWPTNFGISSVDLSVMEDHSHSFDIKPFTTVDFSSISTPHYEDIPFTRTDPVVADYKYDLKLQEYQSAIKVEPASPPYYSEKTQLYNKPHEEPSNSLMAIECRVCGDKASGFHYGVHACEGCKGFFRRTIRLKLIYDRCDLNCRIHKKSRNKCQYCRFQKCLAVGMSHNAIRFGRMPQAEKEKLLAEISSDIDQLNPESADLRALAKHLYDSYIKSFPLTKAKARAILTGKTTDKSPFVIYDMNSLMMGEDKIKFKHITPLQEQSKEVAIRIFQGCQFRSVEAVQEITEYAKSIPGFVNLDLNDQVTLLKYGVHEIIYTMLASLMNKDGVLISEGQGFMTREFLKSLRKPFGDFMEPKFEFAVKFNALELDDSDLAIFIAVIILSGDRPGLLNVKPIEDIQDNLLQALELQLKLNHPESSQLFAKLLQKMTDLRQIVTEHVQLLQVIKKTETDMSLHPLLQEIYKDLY

[6] = AUC in CD-1 mouse at 1 mg/kg, iv; type: ADME, organism-based; parameters: dose 1 mg/kg; conditions: in vivo
[7] = Half life in CD-1 mouse at 1 mg/kg, iv; type: ADME, organism-based; conditions: in vivo
[8] = Clearance in CD-1 mouse at 3 mg/kg, iv; type: ADME, organism-based; conditions: in vivo
[9] = Selectivity index, ratio of EC50 for transactivation of GAL4-fused PPARalpha LBD (unknown origin) transfected in CV1 cells to EC50 for transactivation of GAL4-fused human PPARdelta LBD (128 to residue at C-terminus) transfected in African green monkey CV1 cells by luciferase reporter gene assay

Compound | half-life [1] [min] | EC50 [2] [µM] | EC50 [3] [µM] | AUC [4] [ng·h/mL] | EC50 [5] [µM] | AUC [6] [ng·h/mL] | half-life [7] [min] | clearance [8] [mL/min/kg] | Ratio EC50 [9]
Cc1cnc(-c2ccc(-c3ccco3)cc2)n1Cc1ccccc1OCCCCCC(=O)O | 18 | 6.97 | 0.0007 | 180 | > 10 |  |  |  | 
Cc1cnc(-c2ccc(Cl)c(F)c2)n1Cc1ccccc1OCCC[C@@H](C)CC(=O)O |  | 69 |  |  | > 10 | 440 | 258 |  | 
Cc1cnc(-c2ccc(-c3ccco3)cc2)n1Cc1ccccc1OCCC[C@@H](C)CC(=O)O | 84 | > 100 |  | 650 | > 10 |  |  | 73 | 
C/C(=C\COc1ccccc1Cc1c(C)n[nH]c1-c1ccc(-c2ccco2)cc1)CCC(=O)O | 24 | 13.1 |  | 380 | 5.53 |  |  | 130 | >1000
C/C(=C\COc1ccccc1Cc1c(-c2ccc(-c3ccco3)cc2)noc1C)CCC(=O)O | 12 | 5.84 | 0.0015 | 280 | > 10 |  |  | 180 | >1000
C/C(=C\COc1ccccc1Cn1c(C)cnc1-c1ccc(-c2ccco2)cc1)CCC(=O)O | 30 | 1.23 |  | 300 | > 10 |  |  | 160 | >1000
Cc1ccc(-c2ncc(C)n2Cc2ccccc2OCCC[C@@H](C)CC(=O)O)cc1 |  | 78.5 | 0.02 |  | > 10 |  |  |  | 
Cc1cnc(-c2ccc(-c3ccco3)cc2)n1Cc1ccccc1OCCCCC(C)(C)C(=O)O | 144 |  |  | 400 | > 10 |  |  | 120 | 
C/C(=C\COc1ccccc1Cc1c(-c2ccc(-c3ccco3)cc2)ncn1C)CCC(=O)O | 48 | 0.412 | 0.0013 | 170 | > 10 |  |  | 300 | >1000

From ChEMBL document CHEMBL4715826, “Selective PPARδ Modulators Improve Mitochondrial Function: Potential Treatment for Duchenne Muscular Dystrophy (DMD)” (ACS Med Chem Lett, 2018)
